# From patent publication US6525188B2, “Nuclear retinoic acid co-receptor” (Karo Bio Ab, priority 1994, dated 2003)
# Tested on: RXR / OR-1 on a DR4-containing promoter
# Assay: PAP reporter gene under DR4-containing promoter, transfected embryonal carcinoma P19 EC cells
# Settings: 100 nM 9-cis retinoic acid, 36 h, PAP activity
# Description: Embryonal carcinoma P19 EC cells were cultured in Dulbecco's modified Eagle's medium supplemented with 10% foetal calf serum, nonessential amino acids, penicillin (100 units/ml) and streptomycin (100 mg/ml). […] Cells were plated in duplicate in 35 mm Petri dishes and transfected at 30% confluency, using lipofectin reagent (Bethesada Research Laboratories, USA) according to the recommendations of the supplier.
# Transfections were repeated 6 times with different plasmid preparations and data from a representative experiment is presented here.
# Since OR-1 and RXR formed a specific complex on the DR4 sequence in vitro, coexpression of OR-1 in embryonal carcinoma (EC) cells that express endogenous RXR was tested to determine whether it could affect the activity of a reporter gene under the control of a DR4-containing promoter.
compound,measurement,setting,value
CC1=C(/C=C/C(C)=C\C=C\C(C)=C\C(=O)O)C(C)(C)CCC1 [9-cis retinoic acid],activation of RXR on a DR4-containing promoter,"EC cells with endogenous RXR, OR-1 expressed",activation
same,induction of RXR on a reporter containing DR4,"embryonal carcinoma (EC) cells with endogenous RXR, without OR-1 expression",no induction
